Molecular target: DGKα (Homo sapiens (Human), UniProt P23743)
Test: Measurement of inhibitory effect against DGKα enzyme (ADP-Glo)
Assay type: biochemical
Details: not given
Experimental: Experimental Example: Measurement of Inhibitory Effect Against DGKα Enzyme
First, 3×OAG (3 mM)/ATP (0.45 mM) substrate solution was prepared from 1× substrate assay buffer (40 mM MOPS (pH 7.2), 20 mM MgCl2, 1 mM DTT, 0.4 mM CaCl2), 3 mM sodium deoxycholate, 100 mM NaCl, 0.1 mg/mL BSA, 0.12% NP-40), and vortexed thoroughly for 3 minutes to induce detergent-lipid micelle formation. Then, 3×DGKα (7.5 nM) enzyme solution was prepared from 2× enzyme assay buffer (80 mM MOPS (pH 7.2), 2 mM DTT, 200 mM NaCl, 0.2 mg/mL BSA) and vortexed for a short time.
After preparing the above two solutions, a half-area opaque 96-well assay plate was prepared, and 10 μL of 3× diluted compound solution (30 μM to 0 μM) was transferred to each well. Next, 10 μL of 3×DGK enzyme solution was transferred to the same plate, mixed by pipetting, and then 10 μL of 3×OAG/ATP substrate solution was added to the assay plate and mixed well. The plate was incubated at room temperature for 20 minutes for the enzyme reaction. Next, 15 μL of ADP-Glo reagent was added to each well and mixed by pipetting, followed by incubating the plate at room temperature for 40 minutes to deplete the remaining ATPs. After this step, 30 μL of kinase detection reagent was added and mixed, and the plate was incubated at room temperature for an additional 20 minutes and luminescence was measured by Envision to calculate the IC50 value of each compound.
The measurement results are represented in Table 1 (+: IC50>5 μM, ++: 5 μM>IC50>300 nM, +++: IC50<300 nM).

DGKα, sequence (P23743 whole entry, species assumed): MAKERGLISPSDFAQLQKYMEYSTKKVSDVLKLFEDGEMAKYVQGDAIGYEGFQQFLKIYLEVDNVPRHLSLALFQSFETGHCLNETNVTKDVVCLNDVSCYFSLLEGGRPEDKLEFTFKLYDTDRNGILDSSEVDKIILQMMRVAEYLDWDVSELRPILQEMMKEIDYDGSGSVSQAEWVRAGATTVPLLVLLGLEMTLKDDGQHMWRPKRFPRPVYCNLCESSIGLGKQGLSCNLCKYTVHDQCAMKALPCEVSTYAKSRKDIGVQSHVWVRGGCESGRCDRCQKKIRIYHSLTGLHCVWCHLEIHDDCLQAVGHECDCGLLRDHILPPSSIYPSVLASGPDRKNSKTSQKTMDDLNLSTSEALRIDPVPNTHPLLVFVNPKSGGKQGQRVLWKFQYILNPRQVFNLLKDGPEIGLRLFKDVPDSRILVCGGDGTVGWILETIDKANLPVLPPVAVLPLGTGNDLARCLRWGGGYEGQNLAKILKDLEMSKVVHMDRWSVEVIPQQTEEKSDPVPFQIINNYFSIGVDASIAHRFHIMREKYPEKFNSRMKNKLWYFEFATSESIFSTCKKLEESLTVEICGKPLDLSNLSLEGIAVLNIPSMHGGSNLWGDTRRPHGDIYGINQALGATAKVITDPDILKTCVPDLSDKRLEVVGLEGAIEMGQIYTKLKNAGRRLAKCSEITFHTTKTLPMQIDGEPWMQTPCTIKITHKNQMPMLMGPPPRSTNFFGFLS

In the case of `Cn1c(=O)c(=O)n([C@H]2C[C@H]3CC[C@@H](C2)N3Cc2ccc(OC(F)(F)F)cc2)c2ncc(Cl)cc21` [Example 57, 7-chloro-1-methyl-4-((1R,3r,5S)-8-(4-(trifluoromethoxy)benzyl)-8-azabicyclo[3.2.1]octan-3-yl)-1,4-dihydropyrido[2,3-b]pyrazine-2,3-dione], the IC50 is reported as 300 to 5000 nM.

Same assay, conditions: DGKα enzyme, ADP-Glo luminescence, OAG/ATP substrate, 20 min room temperature; read-out: IC50

Compared with `Cn1c(=O)c(=O)n(C2CCN(Cc3ccc(OC(F)(F)F)cc3)CC2)c2ncc(C3CC3)cc21` [Example 40, 7-cyclopropyl-1-methyl-4-(1-(4-(trifluoromethoxy)benzyl)piperidin-4-yl)-1,4-dihydropyrido[2,3-b]pyrazine-2,3-dione], `COC(=O)c1cnc2c(c1)n(C)c(=O)c(=O)n2C1CCN(Cc2ccc(OC(F)(F)F)cc2)CC1` [Example 60, methyl 1-methyl-2,3-dioxo-4-(1-(4-(trifluoromethoxy)benzyl)piperidin-4-yl)-1,2,3,4-tetrahydropyrido[2,3-b]pyrazine-7-carboxylate] is lower in IC50: > 5000 nM for the first, < 300 nM for the second. The second is the more potent here.

Compared with `CC(C)n1cc(CN2CCC(n3c(=O)c(=O)n(C)c4cc(Cl)cnc43)CC2)cn1` [Example 52, 7-chloro-4-(1-((1-isopropyl-1H-pyrazol-4-yl)methyl)piperidin-4-yl)-1-methyl-1,4-dihydropyrido[2,3-b]pyrazine-2,3-dione], `Cn1c(=O)c(=O)n(C2CCN(Cc3cccc(C(F)(F)F)c3)CC2)c2ncc(Cl)cc21` [Example 30, 7-chloro-1-methyl-4-(1-(3-(trifluoromethyl)benzyl)piperidin-4-yl)-1,4-dihydropyrido[2,3-b]pyrazine-2,3-dione] is lower in IC50: > 5000 nM for the first, < 300 nM for the second.

Compared with `Cc1ccc2c(n1)n(C1CCN(Cc3ccc(Cl)cc3)CC1)c(=O)c(=O)n2C` [Example 14, 4-(1-(4-chlorobenzyl)piperidin-4-yl)-1,6-dimethyl-1,4-dihydropyrido[2,3-b]pyrazine-2,3-dione], `Cn1c(=O)c(=O)n(C2CCN(Cc3ccc(OC(F)(F)F)cc3)CC2)c2nc(Cl)ccc21` [Example 54, 6-chloro-1-methyl-4-(1-(4-(trifluoromethoxy)benzyl)piperidin-4-yl)-1,4-dihydropyrido[2,3-b]pyrazine-2,3-dione] is lower in IC50: 300 to 5000 nM for the first, < 300 nM for the second.

With `Cn1c(=O)c(=O)n([C@H]2C[C@H]3CC[C@@H](C2)N3Cc2ccc(OC(F)(F)F)cc2)c2ncc(Cl)cc21` [Example 32, 7-chloro-1-methyl-4-((1R,3s,5S)-8-(4-(trifluoromethoxy)benzyl)-8-azabicyclo[3.2.1]octan-3-yl)-1,4-dihydropyrido[2,3-b]pyrazine-2,3-dione] the IC50 was < 300 nM.
